Structures can show the parent of a compound that is named as a salt. Where two headings read alike, the source gives them in different places.
Tests used:
Assay type in all cases: biochemical
MMP 9 = molecular target: T1, MMP 9 (Homo sapiens, UniProt P14780); test: In Vitro Gelatinase Assay; settings: for inhibition at 1 µM: read-out: MMP 9 % inhibition at 1 micromolar, 1 micromolar; for IC50: read-out: MMP 9 IC 50
T1 construct: from tissue; host or cells: human neutrophils
Protocol: The assay is based on the cleavage of the thiopeptide substrate ((Ac-Pro-Leu-Gly(2 mercapto-4 methyl-pentanoyl)-Leu-Gly-OEt), Bachem Bioscience) by the enzyme, gelatinase, releasing the substrate product which reacts colorimetrically with DTNB ((5,5'-dithio-bis(2-nitro-benzoic acid)). The enzyme activity is measured by the rate of the color increase. The thiopeptide substrate is made up fresh as a 20 mM stock in 100% DMSO and the DTNB is dissolved in 100% DMSO as a 100 mM stock and stored in dark at room temperature. Both the substrate and DTNB are diluted together to 1 mM with substrate buffer (50 mM HEPES pH 7.5, 5 mM CaCl2) before use. […] The increase in OD405 is plotted and the slope of the line is calculated which represents the reaction rate. The linearity of the reaction rate is confirmed (r^2 >0.85). The mean (x ± sem) of the control rate is calculated and compared for statistical significance (p <0.05) with drug-treated rates using Dunnett's multiple comparison test.

TACE = molecular target: T2, TACE (Homo sapiens, UniProt P78536); test: Procedure for Measuring TACE Inhibition; settings: for IC50: read-out: TACE IC 50
T2 construct: purchased Immunex
T2 sequence (P78536 215-824): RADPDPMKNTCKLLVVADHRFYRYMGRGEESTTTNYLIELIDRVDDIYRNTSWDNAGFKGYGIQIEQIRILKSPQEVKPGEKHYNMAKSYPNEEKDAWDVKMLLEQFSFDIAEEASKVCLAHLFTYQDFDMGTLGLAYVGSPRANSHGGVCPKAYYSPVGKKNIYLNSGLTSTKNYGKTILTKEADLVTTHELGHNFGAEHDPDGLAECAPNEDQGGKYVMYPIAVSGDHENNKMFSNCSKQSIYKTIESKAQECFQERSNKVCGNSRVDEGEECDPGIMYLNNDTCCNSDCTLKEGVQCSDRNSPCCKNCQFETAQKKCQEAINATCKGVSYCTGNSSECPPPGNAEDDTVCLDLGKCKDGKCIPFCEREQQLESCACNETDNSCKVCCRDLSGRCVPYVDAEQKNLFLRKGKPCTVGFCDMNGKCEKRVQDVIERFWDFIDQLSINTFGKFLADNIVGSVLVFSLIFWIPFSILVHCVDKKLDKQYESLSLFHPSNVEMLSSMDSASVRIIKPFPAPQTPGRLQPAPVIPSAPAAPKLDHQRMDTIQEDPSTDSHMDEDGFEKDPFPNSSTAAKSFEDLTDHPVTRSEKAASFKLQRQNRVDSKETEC
Procedure, shortened: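 Single-concentration screen: test compound at 1 µM final, 10-min room-temperature preincubation with 1 µg/mL protease in Tris pH 7.4 buffer containing glycerol. Initial rate from linear fluorescence increase (340/420 nm) over 10 min after adding 100 µM peptidyl substrate; significance versus control rate by Dunnett's test.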

MMP 1 = molecular target: T3, MMP 1 (Homo sapiens, UniProt P03956); test: In Vitro Collagenase Assay; settings: for IC50: read-out: MMP 1 IC 50; for inhibition at 1 µM: read-out: MMP 1 % inhibition at 1 micromolar, 1 micromolar
T3 construct: human recombinant fibroblast collagenase (truncated, mw= 18,828, WAR, Radnor)
T3 sequence (P03956 100-269 limits assumed): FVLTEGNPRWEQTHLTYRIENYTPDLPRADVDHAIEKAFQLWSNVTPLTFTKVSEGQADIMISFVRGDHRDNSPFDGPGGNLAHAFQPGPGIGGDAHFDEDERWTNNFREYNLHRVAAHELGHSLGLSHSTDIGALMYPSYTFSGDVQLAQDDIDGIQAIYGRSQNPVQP
Protocol: The assay is based on the cleavage of a peptide substrate ((Dnp-Pro-Cha-Gly-Cys(Me)-His-Ala-Lys(NMa)-NH2), Peptide International, Inc.) by collagenase releasing the fluorescent NMa group which is quantitated on the fluorometer. Dnp quenches the NMa fluorescence in the intact substrate. […] Substrate is dissolved in methanol and stored frozen in 1 mM aliquots. […] For the assay, substrate is dissolved in HCBC buffer to a final concentration of 10 µM and collagenase to a final concentration of 5 nM. Compounds are dissolved in methanol, DMSO, or HCBC. The methanol and DMSO are diluted in HCBC to < 1.0%. Compounds are added to the 96 well plate containing enzyme and the reaction is started by the addition of substrate.
The slope of the line is calculated and represents the reaction rate.
The linearity of the reaction rate is confirmed (r^2 >0.85). The mean (x ± sem) of the control rate is calculated and compared for statistical significance (p <0.05) with drug-treated rates using Dunnett's multiple comparison test.

MMP 13 [1] = molecular target: T4, MMP 13 (Homo sapiens, UniProt P45452); test: MMP 13 inhibition (IC50 / manual assay; method not described); settings: read-out: MMP 13 IC 50
MMP 13 [2] = molecular target: T4, MMP 13; test: MMP 13 inhibition (HTS; method not described); settings: HTS; for inhibition at 0.2 µM: read-out: MMP 13 % inhibition at 0.2 µM (HTS)
[3] = human recombinant fibroblast collagenase
[4] = read-out: TACE % inhibition at 1 micromolar
[5] = read-out: TACE % inhibition at 1 µM, 1 µM, Examples 110-168

T1 sequence (P14780 94-707): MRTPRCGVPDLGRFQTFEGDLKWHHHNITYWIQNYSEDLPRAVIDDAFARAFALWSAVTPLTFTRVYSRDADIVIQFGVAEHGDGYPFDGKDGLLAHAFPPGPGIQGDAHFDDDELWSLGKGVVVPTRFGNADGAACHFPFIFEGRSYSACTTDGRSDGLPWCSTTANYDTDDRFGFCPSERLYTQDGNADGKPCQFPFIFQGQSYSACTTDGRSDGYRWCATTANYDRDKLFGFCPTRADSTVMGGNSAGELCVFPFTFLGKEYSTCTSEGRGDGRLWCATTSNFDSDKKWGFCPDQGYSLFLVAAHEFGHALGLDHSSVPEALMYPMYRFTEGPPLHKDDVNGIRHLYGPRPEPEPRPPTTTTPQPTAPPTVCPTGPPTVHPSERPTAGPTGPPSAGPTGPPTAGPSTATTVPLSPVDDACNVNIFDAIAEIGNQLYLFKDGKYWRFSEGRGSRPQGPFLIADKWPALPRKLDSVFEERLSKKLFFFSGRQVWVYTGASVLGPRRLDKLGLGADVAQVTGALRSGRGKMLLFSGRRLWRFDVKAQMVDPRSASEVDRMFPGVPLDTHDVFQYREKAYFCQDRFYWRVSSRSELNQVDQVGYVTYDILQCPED

IC50 (MMP 9; human neutrophil gelatinase B) [nM] | IC50 (MMP 1; [3]) [nM] | inhibition at 1 µM (TACE; [4]) [%] | Molecule | further results
– | – | – | CCCCC(Cc1cccnc1)(C(=O)NO)S(=O)(=O)c1ccc(OC)cc1 (stereo not shown) [Example 70, 2-(4-Methoxy-benzenesulfonyl)-2-pyridin-3-ylmethyl-hexanoic acid hydroxyamide] | inhibition at 1 µM (MMP 9; human neutrophil gelatinase B): 88.8%; IC50 (TACE): 764 nM
10.3 | – | – | COc1ccc(S(=O)(=O)C2(C(=O)NO)CCN(Cc3ccc(Br)cc3)CC2)cc1 [Example 90, 1-(4-Bromo-benzyl)-4-(4-methoxy-benzenesulfonyl)-piperidine-4-carboxylic acid hydroxyamide] | –
– | 100 | 15.5 | COc1ccc(S(=O)(=O)C(C)(Cc2ccccc2)C(=O)NO)cc1 (stereo not shown) [Example 12, N-Hydroxy-2-(4-methoxy-benzenesulfonyl)-2-methyl-3-phenyl-propionamide] | –
13.3 | 1930 | – | COc1ccc(S(=O)(=O)C2(C(=O)NO)CCN(CCCc3ccccc3)CC2)cc1 [Example 91, 4-(4-methoxy-benzenesulfonyl)-1-(3-phenyl-propyl)-piperidine-4-carboxylic acid hydroxyamide] | IC50 (TACE): 503 nM
0.54 | 25 | – | COc1ccc(S(=O)(=O)C(CC=C(C)C)(CC=C(C)C)C(=O)NO)cc1 [Example 79, 2-(4-Methoxy-benzenesulfonyl)-5-methyl-2-(3-methyl-but-2-enyl)-hex-4-enoic acid hydroxyamide] | IC50 (TACE): 805 nM
23 | 158 | 17.2 | COc1ccc(S(=O)(=O)C(C)(Cc2ccc(-c3ccccc3)cc2)C(=O)NO)cc1 (stereo not shown) [Example 14, 3-(Biphenyl-4-yl)-N-hydroxy-2-(4-methoxy-benzenesulfonyl)-2-methyl-propionamide] | –
– | 300 | 20.2 | C#CCC(CC#C)(C(=O)NO)S(=O)(=O)c1ccc(OC)cc1 [Example 73, 2-(4-Methoxy-benzenesulfonyl)-2-prop-2-ynyl-pent-4-ynoic acid hydroxyamide] | –
8.9 | 239 | 41 | COc1ccc(S(=O)(=O)C(C)(Cc2ccc(OCCN3CCCCC3)cc2)C(=O)NO)cc1 (stereo not shown) [Example 17, N-Hydroxy-2-(4-methoxy-benzenesulfonyl)-2-methyl-3-[4-(2-piperidin-1-yl-ethoxy)-phenyl]-propionamide] | –
– | – | – | CCCCOc1ccc(S(=O)(=O)C2(C(=O)NO)CCN(Cc3ccc(OC)cc3)CC2)cc1 [Example 104, 4-(4-n-Butoxy-benzenesulfonyl)-1-(4-methoxy-benzyl)-piperidine-4-carboxylic acid hydroxyamide] | IC50 (MMP 13 [1]): 1.4 nM; IC50 (TACE): 208 nM
– | – | 20.4 | CC(Cc1ccc(OCCN2CCCCC2)cc1)(C(=O)NO)S(=O)(=O)c1cccs1 (stereo not shown) [Example 45] | inhibition at 1 µM (MMP 1; [3]): 49%; inhibition at 1 µM (MMP 9; human neutrophil gelatinase B): 48.6%
– | – | 52.6 | COc1ccc(S(=O)(=O)C(C(=O)NO)C(C)C)cc1 (stereo not shown) [Example 53, N-Hydroxy-2-(4-methoxy-benzenesulfonyl)-3-methyl-butyramide] | inhibition at 1 µM (MMP 9; human neutrophil gelatinase B): 27.8%
– | – | 24.9 | CCCC(CCC)(C(=O)NO)S(=O)(=O)c1ccc(OC)cc1 [Example 59, 2-(4-methoxy-benzenesulfonyl)-2-propyl-pentanoic acid hydroxyamide] | inhibition at 1 µM (MMP 1; [3]): 30.2%
7.9 | 139 | – | COc1ccc(S(=O)(=O)C(C)(Cc2ccc3ccccc3c2)C(=O)NO)cc1 (stereo not shown) [Example 52, N-hydroxy-2-(4-methoxy-benzenesulfonyl)-2-methyl-3-naphthalen-2-yl-propionamide] | –
– | – | – | CCCCOc1ccc(S(=O)(=O)C2(C(=O)NO)CCN(Cc3ccccc3)CC2)cc1 [Example 98, 1-Benzyl-4-(4-butoxy-benzenesulfonyl)-piperidine-4-carboxylic acid hydroxyamide] | IC50 (MMP 13 [1]): 1.2 nM
18.9 | 540 | 29.2 | COc1ccc(S(=O)(=O)C(C)(Cc2ccc(OCCN3CCCCCC3)cc2)C(=O)NO)cc1 (stereo not shown) [Example 18, 2-[4-(2-Azepan-1-yl-ethoxy)-benzyl]-2-(4-methoxy-benzenesulfonyl)-propionic acid hydroxyamide] | –
138 | 2640 | – | COc1ccc(S(=O)(=O)C2(C(=O)NO)CCN(C3CCCCCCC3)CC2)cc1 [Example 94, 1-Cyclooctyl-4-(4-methoxy-benzenesulfonyl)-piperidine-4-carboxylic acid hydroxyamide] | –
– | – | – | CCCCCCCCCCCCC(C(=O)NO)S(=O)(=O)c1ccc(OC)cc1 (stereo not shown) [Example 11, 2-(4-Methoxy-benzenesulfonyl)-tetradecanoic hydroxyamide] | inhibition at 1 µM (MMP 1; [3]): 18.8%; IC50 (TACE): 942 nM
– | – | – | COc1ccc(S(=O)(=O)C2(C(=O)NO)CCN(Cc3ccc(-c4ccccc4)cc3)CC2)cc1 [Example 88, 1-Biphenyl-4-ylmethyl-4-(4-methoxy-benzenesulfonyl)piperidine-4-carboxylic acid hydroxamide] | IC50 (MMP 1): 1330 nM; IC50 (MMP 9): 12.8 nM
184 | – | 23.6 | COc1ccc(S(=O)(=O)C(Cc2ccccc2)(Cc2ccccc2)C(=O)NO)cc1 [Example 60, 2-benzyl-N-hydroxy-2-(4-methoxy-benzenesulfonyl)-3-phenyl-propionamide] | –
– | – | 15.8 | CCCCN1CCC(C(=O)NO)(S(=O)(=O)c2ccc(OC)cc2)CC1 [Example 93, 1-Butyl-4-(4-methoxy-benzenesulfonyl)-piperidine-4-carboxylic acid hydroxyamide] | inhibition at 1 µM (MMP 1; [3]): 56.3%
– | – | – | CCCCCCC(C(=O)NO)[S+]([O-])c1cccc(OC)c1 (stereo not shown) [Example 163, 2-(3-Methoxybenzenesulfinyl)-octanoic acid hydroxyamide] | inhibition at 0.2 µM (MMP 13 [2]): 84%; inhibition at 1 µM (TACE; [5]): 9.52%
– | – | 54.8 | CCCCC(C(=O)NO)S(=O)(=O)c1ccc(OC)cc1 (stereo not shown) [Example 10, 2-(4-Methoxy-benzenesulfonyl)-hexanoic acid hydroxyamide] | inhibition at 1 µM (MMP 1; [3]): 8%
– | – | – | 2,5-Dichloro-thiophene-3-sulfonic acid 4-(1-hydroxycarbamoyl-heptylsulfanyl)-hydroxyamide [Example 233] | MMP 13 % inhibition at 36 nM (HTS) (MMP 13 [2]; 36 nM): 33%; TACE % inhibition at 1 µM (TACE; 1 µM, Examples 169-240): 19.8%
– | – | – | N=C(N)NCCCC(C(=O)NO)[S+]([O-])c1cccc(F)c1 (stereo not shown) [Example 156, 2-(3-Fluorophenylsulfinyl)-5-guanidino-pentanoic acid hydroxyamide] | inhibition at 0.2 µM (MMP 13 [2]): 23%; inhibition at 1 µM (TACE; [5]): -2.09%

Molecule | IC50 (MMP 9; human neutrophil gelatinase B) [nM] | IC50 (MMP 1; [3]) [nM] | inhibition at 1 µM (TACE; [4]) [%] | further results
CCCCOc1ccc(S(=O)(=O)C2(C(=O)NO)CCN(CCOc3ccccc3)CC2)cc1 [Example 108, 4-(4-n-Butoxy-benzenesulfonyl)-1-(2-phenoxy-ethyl)-piperidine-4-carboxylic acid hydroxyamide] | 5.4 | 2900 | – | IC50 (TACE): 270 nM
CCCCOc1ccc(S(=O)(=O)C2(C(=O)NO)CCN(CCCOc3ccccc3)CC2)cc1 [Example 106, 4-(4-n-Butoxy-benzenesulfonyl)-1-(3-phenoxy-propyl)-piperidine-4-carboxylic acid hydroxyamide] | 5.1 | 3790 | – | IC50 (TACE): 631 nM
COc1ccc(S(=O)(=O)C(C)(Cc2ccc(OCCN3CCOCC3)cc2)C(=O)NO)cc1 (stereo not shown) [Example 82, 2-(4-methoxy-benzenesulfonyl)-2-methyl-3-[4-(2-morpholin-4-yl-ethoxy)-phenyl]-propionic hydroxyamide hydrochloride] | 19.4 | 238 | 34.5 | –
